“And” between values parts separate entries of the source, which are not always exact repeats. Equal values may be shown once.
What was measured:
[1] = target: Isocitrate dehydrogenase [NADP], mitochondrial (Homo sapiens, UniProt P48735, R140Q); test: Inhibition of IDH2 R140Q mutant (unknown origin)
[2] = target: Isocitrate dehydrogenase [NADP] cytoplasmic (Homo sapiens, UniProt O75874); test: Inhibition of wild type IDH1 (unknown origin)
[3] = target: Isocitrate dehydrogenase [NADP] cytoplasmic (Homo sapiens, UniProt O75874, R132C); test: Inhibition of IDH1 R132C mutant (unknown origin)
Chain of Isocitrate dehydrogenase [NADP] cytoplasmic (Homo sapiens, UniProt O75874, R132C) (O75874 2-414 R132C limits assumed): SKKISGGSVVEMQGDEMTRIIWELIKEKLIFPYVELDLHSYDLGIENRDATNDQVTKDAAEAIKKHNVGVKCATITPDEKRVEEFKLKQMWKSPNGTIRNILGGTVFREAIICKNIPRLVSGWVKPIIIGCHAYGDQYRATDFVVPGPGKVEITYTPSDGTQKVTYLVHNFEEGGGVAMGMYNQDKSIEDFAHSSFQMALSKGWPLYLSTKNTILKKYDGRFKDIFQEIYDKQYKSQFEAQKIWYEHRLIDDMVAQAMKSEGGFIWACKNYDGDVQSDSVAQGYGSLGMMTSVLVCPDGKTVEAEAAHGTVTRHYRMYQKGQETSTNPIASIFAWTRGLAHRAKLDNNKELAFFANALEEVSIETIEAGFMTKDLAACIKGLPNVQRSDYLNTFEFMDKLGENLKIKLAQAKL

[4] = target: Isocitrate dehydrogenase [NADP] cytoplasmic (Homo sapiens, UniProt O75874, R132H); test: Inhibition of IDH1 R132H mutant (unknown origin)
Chain of Isocitrate dehydrogenase [NADP] cytoplasmic (Homo sapiens, UniProt O75874, R132H) (O75874 2-414 R132H limits assumed): as the sequence (O75874 2-414 R132C limits assumed) above, with C131H counted along it

[5] = target: T1, Isocitrate dehydrogenase [NADP], mitochondrial (Homo sapiens, UniProt P48735); test: Inhibition of wild type IDH2 (unknown origin)
T1 sequence (P48735 whole entry): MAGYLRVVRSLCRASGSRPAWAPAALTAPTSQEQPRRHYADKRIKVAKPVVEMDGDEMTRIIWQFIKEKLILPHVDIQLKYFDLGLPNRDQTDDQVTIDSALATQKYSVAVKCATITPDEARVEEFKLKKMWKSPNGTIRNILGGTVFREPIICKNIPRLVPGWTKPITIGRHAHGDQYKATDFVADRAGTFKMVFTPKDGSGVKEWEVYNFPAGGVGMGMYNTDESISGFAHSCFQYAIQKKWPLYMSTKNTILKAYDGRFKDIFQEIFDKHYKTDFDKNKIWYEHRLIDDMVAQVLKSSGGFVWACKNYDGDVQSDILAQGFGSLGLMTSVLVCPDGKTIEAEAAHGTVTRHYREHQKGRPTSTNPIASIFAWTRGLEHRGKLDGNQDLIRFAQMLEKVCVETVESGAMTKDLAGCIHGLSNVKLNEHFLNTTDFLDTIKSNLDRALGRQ

[6] = target: Isocitrate dehydrogenase [NADP], mitochondrial (Homo sapiens, UniProt P48735, R172K); test: Inhibition of IDH2 R172K mutant (unknown origin)
Chain of Isocitrate dehydrogenase [NADP], mitochondrial (Homo sapiens, UniProt P48735, R172K) (P48735 40-452 R172K limits assumed): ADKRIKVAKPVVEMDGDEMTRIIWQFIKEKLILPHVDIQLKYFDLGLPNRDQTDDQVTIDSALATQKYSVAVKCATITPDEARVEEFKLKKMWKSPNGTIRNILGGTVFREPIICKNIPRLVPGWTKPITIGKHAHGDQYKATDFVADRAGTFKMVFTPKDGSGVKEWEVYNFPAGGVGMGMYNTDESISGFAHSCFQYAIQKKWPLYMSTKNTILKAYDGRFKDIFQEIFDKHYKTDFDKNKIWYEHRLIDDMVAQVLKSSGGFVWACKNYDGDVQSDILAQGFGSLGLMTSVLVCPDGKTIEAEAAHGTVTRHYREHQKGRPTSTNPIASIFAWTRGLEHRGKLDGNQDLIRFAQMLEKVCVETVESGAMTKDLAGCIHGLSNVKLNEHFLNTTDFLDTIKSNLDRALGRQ

Chain of Isocitrate dehydrogenase [NADP], mitochondrial (Homo sapiens, UniProt P48735, R140Q) (P48735 40-452 R140Q limits assumed): as the sequence (P48735 40-452 R172K limits assumed) above, with R101Q, K133R counted along it
Chain of Isocitrate dehydrogenase [NADP] cytoplasmic (Homo sapiens, UniProt O75874) (O75874 whole entry): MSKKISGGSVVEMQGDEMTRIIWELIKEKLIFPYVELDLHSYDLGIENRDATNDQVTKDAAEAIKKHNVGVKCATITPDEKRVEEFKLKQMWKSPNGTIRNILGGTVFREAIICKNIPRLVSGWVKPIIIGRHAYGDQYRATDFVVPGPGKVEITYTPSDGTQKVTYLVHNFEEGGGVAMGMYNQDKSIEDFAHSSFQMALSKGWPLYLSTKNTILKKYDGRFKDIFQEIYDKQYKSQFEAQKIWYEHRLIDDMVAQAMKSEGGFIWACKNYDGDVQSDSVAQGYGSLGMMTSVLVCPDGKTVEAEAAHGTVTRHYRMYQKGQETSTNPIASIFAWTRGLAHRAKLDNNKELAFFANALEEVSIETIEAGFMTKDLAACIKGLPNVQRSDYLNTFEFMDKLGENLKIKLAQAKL

| Structure (SMILES) | IC50 [1] | IC50 [2] | IC50 [3] | IC50 [4] | IC50 [5] | IC50 [6] |
| --- | --- | --- | --- | --- | --- | --- |
| Cc1ccccc1C(C(=O)NC1CCCCC1)N(C(=O)Cn1ccnc1C)c1cccc(F)c1 (configuration not stated) | > 100 µM | > 100 µM | 0.39 µM | 0.17 µM | > 100 µM | > 100 µM |
| O=C(Nc1cccc(C(F)(F)F)c1)Nc1cc(S(=O)(=O)NC2CC2)ccc1-c1ccsc1 | – | > 100 µM | > 100 µM | > 100 µM | – | – |
| O=S(=O)(NC1CC1)c1ccc(-c2ccsc2)c(Nc2nc3ccc(F)c(F)c3[nH]2)c1 | 13.8 µM | – | – | – | – | – |
| CCOC(=O)c1ccc2nc(Nc3cc(S(=O)(=O)NC4CC4)ccc3-c3ccsc3)[nH]c2c1 | > 100 µM | – | – | – | – | – |
| O=S(=O)(NC1CC1)c1ccc(-c2ccsc2)c(Nc2nc3cc(Br)ccc3[nH]2)c1 | 2.02 µM and 0.26 µM | > 100 µM | > 100 µM | > 100 µM | > 100 µM | > 100 µM |
| O=S(=O)(NC1CC1)c1ccc(-c2ccsc2)c(Nc2nc3ccc(F)c(Cl)c3[nH]2)c1 | 10.3 µM | – | – | – | – | – |
| COC(=O)c1ccc2nc(Nc3cc(S(=O)(=O)NC4CC4)ccc3-c3ccsc3)[nH]c2c1 | > 100 µM | – | – | – | – | – |
| N#Cc1ccc2nc(Nc3cc(S(=O)(=O)NC4CC4)ccc3-c3ccsc3)[nH]c2c1 | 97.9 µM | – | – | – | – | – |
| O=S(=O)(NC1CC1)c1ccc(-c2ccsc2)c(Nc2nc3ccc(Cl)c(Cl)c3[nH]2)c1 | 2.72 µM | – | – | – | – | – |
| Cc1cc(C)c2[nH]c(Nc3cc(S(=O)(=O)NC4CC4)ccc3-c3ccsc3)nc2c1 | 0.96 µM | > 100 µM | > 100 µM | > 100 µM | > 100 µM | 51.8 µM |
| Cc1ccc2nc(Nc3cc(S(=O)(=O)NC4CC4)ccc3-c3ccsc3)[nH]c2c1C | 1.61 µM | – | – | – | – | – |
| O=S(=O)(NC1CC1)c1ccc(-c2ccsc2)c(Nc2nc3ccc(Br)c(Br)c3[nH]2)c1 | 0.65 µM | > 100 µM | > 100 µM | > 100 µM | > 100 µM | > 100 µM |
| O=S(=O)(NC1CC1)c1ccc(-c2ccsc2)c(Nc2nc3cc(F)cc(F)c3[nH]2)c1 | 4.94 µM | – | – | – | – | – |
| COc1ccc2nc(Nc3cc(S(=O)(=O)NC4CC4)ccc3-c3ccsc3)[nH]c2c1 | 46.9 µM | – | – | – | – | – |
| O=S(=O)(NC1CC1)c1ccc(-c2ccsc2)c(Nc2nc3ccc(Cl)cc3[nH]2)c1 | 11.9 µM | – | – | – | – | – |
| O=S(=O)(NC1CC1)c1ccc(-c2ccsc2)c(Nc2nc3ccc(C(F)(F)F)c(Cl)c3[nH]2)c1 | 4.34 µM | – | – | – | – | – |
| O=S(=O)(NC1CC1)c1ccc(-c2ccsc2)c(Nc2nc3ccc(C(F)(F)F)cc3[nH]2)c1 | 14.1 µM | – | – | – | – | – |
| O=S(=O)(NC1CC1)c1ccc(-c2ccsc2)c(Nc2nc3cc(F)ccc3[nH]2)c1 | 0.73 µM | > 100 µM | > 100 µM | > 100 µM | > 100 µM | 78.8 µM |
| O=S(=O)(NC1CC1)c1ccc(-c2ccsc2)c(Nc2nc3ccccc3[nH]2)c1 | 5.41 µM | – | – | – | – | – |
| CC(C)(O)CNc1nc(Nc2ccnc(C(F)(F)F)c2)nc(-c2cccc(C(F)(F)F)n2)n1 [ENASIDENIB] | 0.31 µM | > 100 µM | > 100 µM | > 100 µM | > 100 µM | 1.08 µM |

From ChEMBL document CHEMBL4627324, “Design and synthesis of novel 2-arylbenzimidazoles as selective mutant isocitrate dehydrogenase 2 R140Q inhibitors” (Bioorg Med Chem Lett, 2020)
